# Experimental data published in ChEMBL document CHEMBL2074216, “Novel camptothecin analogues that circumvent ABCG2-associated drug resistance in human tumor cells” (Int J Cancer, 2004).
# Molecular target: T1, Broad substrate specificity ATP-binding cassette transporter ABCG2 (Homo sapiens, UniProt Q9UNQ0)
# T1 sequence (Q9UNQ0 whole entry): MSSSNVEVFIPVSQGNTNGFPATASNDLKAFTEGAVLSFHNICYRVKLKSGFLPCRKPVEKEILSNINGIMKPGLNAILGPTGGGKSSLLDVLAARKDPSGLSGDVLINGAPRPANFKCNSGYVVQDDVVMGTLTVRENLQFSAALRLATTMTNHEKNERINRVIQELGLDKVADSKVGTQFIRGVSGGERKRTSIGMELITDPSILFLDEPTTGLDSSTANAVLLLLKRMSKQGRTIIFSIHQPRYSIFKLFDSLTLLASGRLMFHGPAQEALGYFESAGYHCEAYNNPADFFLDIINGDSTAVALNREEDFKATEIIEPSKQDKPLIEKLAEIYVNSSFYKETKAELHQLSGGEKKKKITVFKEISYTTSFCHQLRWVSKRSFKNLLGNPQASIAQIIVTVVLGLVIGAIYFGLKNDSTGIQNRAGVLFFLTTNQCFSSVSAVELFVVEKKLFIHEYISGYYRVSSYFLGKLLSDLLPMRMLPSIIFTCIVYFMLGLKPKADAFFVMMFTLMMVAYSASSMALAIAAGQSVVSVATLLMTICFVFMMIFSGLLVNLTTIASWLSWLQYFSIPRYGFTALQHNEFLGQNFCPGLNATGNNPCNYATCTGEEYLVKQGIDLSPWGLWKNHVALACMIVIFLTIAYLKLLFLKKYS
# Assay: TP_TRANSPORTER: uptake in BCRP-expressing PC-6 cells
# Assay type: functional, cell-based
row,Structure (SMILES),Activity
1,CCc1c2c(nc3cc(F)c(O)cc13)-c1cc3c(c(=O)n1C2)COC(=O)[C@]3(O)CC,substrate []
2,CCc1c2c(nc3cc(F)c(OC)cc13)-c1cc3c(c(=O)n1C2)COC(=O)[C@]3(O)CC,substrate []
3,CCc1c2c(nc3cc(O)ccc13)-c1cc3c(c(=O)n1C2)COC(=O)[C@]3(O)CC,substrate []
4,CCc1c2c(nc3cc(Br)ccc13)-c1cc3c(c(=O)n1C2)COC(=O)[C@]3(O)CC,substrate []
5,CCc1c2c(nc3ccc(Cl)cc13)-c1cc3c(c(=O)n1C2)COC(=O)[C@]3(O)CC,substrate []
6,CCc1c2c(nc3ccc(N)cc13)-c1cc3c(c(=O)n1C2)COC(=O)[C@]3(O)CC,substrate []
7,CCc1c2c(nc3ccc(O)cc13)-c1cc3c(c(=O)n1C2)COC(=O)[C@]3(O)CC [7-ETHYL-10-HYDROXYCAMPTOTHECIN],substrate []
